Test results taken from patent US20250099496A1, “Dihydronicotinamide Riboside (NRH) Therapy for Osteoarthritis and other Conditions” (The Regents of the University of California, priority 2022, published 2025).

Tests used:
human OA chondrocytes [1] = assay: Cellular NAD, NADH and NAD/NADH ratio in human OA chondrocytes; type: cell-based
Excerpt: (§1) In this study, it was observed that CD38 expression is increased in human knee cartilage of both osteoarthritis (OA) and aged donors (FIGS. 1A and 1B), in primary human knee OA chondrocytes (FIG. 1C) and in chondrocytes stimulated with IL-1, a pro-inflammatory cytokine implicated to play an important role in OA pathogenesis (FIG. 1E). […] In addition, NRH prevented IL-1β-induced CD38 expression at both mRNA and protein levels (FIGS. 2D and 2E) and decline of NAD levels and NAD/NADH ratio (FIGS. 2F and 2G). […] It was observed that NRH has higher potency than NR to inhibit IL-1β-induced catabolic responses in chondrocytes, evidenced by that similar efficacy was achieved by NRH used at concentration 10 times less than NR (data not shown).

CD38 = assay: IL-1β-induced CD38 expression in chondrocytes; type: cell-based, human; settings: mRNA and protein levels
Excerpt: as §1

MMP3 = assay: IL-1β-induced MMP3 expression at cellular and tissue levels; type: cell-based, human; settings: cellular (mRNA and protein) levels and tissue levels
Excerpt: as §1

MMP13 = assay: IL-1β-induced MMP13 expression at cellular and tissue levels; type: cell-based, human; settings: cellular (mRNA and protein) levels and tissue levels
Excerpt: as §1

[2] = tested on: cartilage matrix degradation; assay: IL-1β-induced release of matrix protein glycosaminoglycan (GAG); type: cell-based
Excerpt: as §1

chondrocytes = assay: IL-1β-induced catabolic responses in chondrocytes, NRH versus NR; type: cell-based; settings: inhibition of IL-1β-induced catabolic responses; data not shown
Excerpt: as §1

post-traumatic OA model = assay: Post-traumatic OA model (DMM surgery) in mice, oral NRH; type: in vivo
Description: Given that NRH is a natural NAD precursor with oral bioavailability and its ability to not only promote NAD^+ biosynthesis, but also prohibit NAD^+ degradation by inhibiting CD38, it was next tested whether oral administration of NRH limits OA development in mice using a post-traumatic OA model. Destabilization of medial meniscus (DMM) surgery was performed on the right knee of mice to cause joint injury and started NRH treatment through gavage 2 week after the surgery. Pain behaviors such as pain sensitivity and spontaneous pain were evaluated by Von Frey and static weight bearing tests, respectively, at baseline and every 2 weeks after the surgery. At 10 weeks after the surgery, mice were sacrificed, and knee OA pathological changes including cartilage degradation, synovial inflammation and osteophyte formation were assessed.

human OA chondrocytes [3] = assay: IL-1β-induced nitric oxide (NO) generation in human OA chondrocytes; type: cell-based; settings: for concentration at which significant inhibition of IL-1β-induced NO release was observed when used alone: chondrocytes, previously demonstrated
Description: The effectiveness of NR on inhibition of IL-1β-induced nitric oxide (NO) generation in human chondrocytes was influenced by the presence or absence of serum (which contains PNP) in the cell culture media. Human OA chondrocytes (donor OA278) were treated with a PNP inhibitor Ulodesine (5 uM) for 2 h and then NR (10 or 100 uM) for 1 h, followed by IL1β (2 ng/ml) for 24 h under serum (10% FCS)-present (FIG. 6A) or serum-free condition (FIG. 6B). The conditioned media was used for measuring generation of nitric oxide (NO), a known contributor of cartilage degradation.
Effectiveness of combination of low-dose of NAD precursors (NR or NRH) with a PNP inhibitor Ulodesine on inhibition of IL-1β-induced nitric oxide (NO) generation in human chondrocytes under the serum-presence condition. Human OA chondrocytes from donor OA277 (FIG. 7A) or OA279 (FIG. 7B) were treated with Ulodesine (5 uM) for 2 h and then NR or NRH at 10 uM for 1 h, followed by IL1p (2 ng/ml) for 24 h under serum-present (10% FCS) condition. The conditioned media was used for measuring NO generation.

[4] = tested on: MSU crystal-induced inflammation; assay: MSU crystal-induced inflammation in the gout-like air pouch model in mice; type: in vivo; settings: via gavage, 400 mg/kg/day
Description: It was observed that blood NAD levels decrease, correlated with increase in CD38 expression in peripheral blood mononuclear cells in gout patients compared to healthy subjects. […] The effect of oral supplementation of NR or NRH (via gavage, 400 mg/kg/day) on MSU crystal-induced inflammation in the gout-like air pouch model in mice was tested (FIG. 8). The development of the air pouch leads to a pouch lining tissue that is morphologically like the synovium in joints, in which injection of sterile-filtered air under the skin on the back of the test animal provides an environment that is used to simulate the effects of diseases such as gout. […] Given the potential of Ulodesine in lowering uric acid and of NR or NRH in limiting MSU crystal-induced inflammation, combination of NR or NRH with Ulodesine, or other PNP inhibitors, presents a novel therapeutic approach for gout.

[5] = cited from earlier work
gout patients = settings: each arm: 40, 80 and 120 mg per day; 60 gout patients with baseline SU ≥8 mg/dL; cited from earlier work
PNP = PNP (Homo sapiens, UniProt P00491); settings: cited from earlier work
[6] = metabolized by PNP; cited from earlier work
[7] = cited from earlier work; remark: listed apart in the source
[8] = human OA chondrocytes stimulated with NRH
[9] = NRH by gavage from 2 weeks after DMM surgery, assessed at 10 weeks
[10] = at 6, 8 and 10 weeks after the surgery
[11] = 10 uM alone, serum-present (10% FCS), donors OA277, OA279

Chain of PNP (P00491 whole entry): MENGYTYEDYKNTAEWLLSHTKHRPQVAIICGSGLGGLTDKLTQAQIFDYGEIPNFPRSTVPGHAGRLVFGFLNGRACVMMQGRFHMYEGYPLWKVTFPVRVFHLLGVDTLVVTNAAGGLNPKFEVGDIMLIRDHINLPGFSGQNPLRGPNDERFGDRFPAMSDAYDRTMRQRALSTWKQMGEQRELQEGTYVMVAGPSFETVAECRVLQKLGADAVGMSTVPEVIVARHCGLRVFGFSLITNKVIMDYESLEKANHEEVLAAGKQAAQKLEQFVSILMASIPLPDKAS

NC(=O)C1=CN([C@@H]2O[C@H](CO)[C@@H](O)[C@H]2O)C=CC1 [NRH, dihydronicotinamide riboside]
IL-1β-induced decline of NAD levels (human OA chondrocytes [1]; IL-1β stimulation): prevented | IL-1β-induced decline of NAD/NADH ratio (human OA chondrocytes [1]; IL-1β stimulation): prevented | NAD/NADH ratio (human OA chondrocytes [1]; [8]): dramatically increased | cellular levels of NAD (human OA chondrocytes [1]; [8]): dramatically increased | cellular levels of NADH (human OA chondrocytes [1]; [8]): dramatically increased | IL-1β-induced CD38 expression (CD38): prevented | IL-1β-induced expression of MMP3 (MMP3): completely attenuated | IL-1β-induced expression of MMP13 (MMP13): completely attenuated | IL-1β-induced release of glycosaminoglycan (GAG) [2]: significantly inhibited | concentration of NRH relative to NR giving similar efficacy (chondrocytes): 10 times less | cartilage damage (post-traumatic OA model; [9]): significantly reduced | osteophyte size and maturity (post-traumatic OA model; [9]): significantly reduced | synovial inflammation (post-traumatic OA model; [9]): significantly reduced | paw withdraw threshold (Von Frey) (post-traumatic OA model; [10]): significantly increased | weight bearing capacity (post-traumatic OA model; [10]): significantly increased | effect on IL-1β-induced NO release (human OA chondrocytes [3]; [11]): little effect | concentration at which significant inhibition of IL-1β-induced NO release was observed when used alone (human OA chondrocytes [3]): 200 µM | MSU crystal-induced infiltrating inflammatory cells [4]: significantly inhibited | NRH in circulation after NRH treatment ([5]; mice): detectable | NR in circulation after NRH treatment versus after NR administration ([5]; mouse, in vivo): much higher levels | stability compared to NR ([5]; mouse, in vivo): more stable

O=c1[nH]cnc2c(CN3C[C@H](CO)[C@@H](O)C3)c[nH]c12 [Ulodesine]
participants achieving the target SU of less than 6 mg/dL (gout patients): approximately one third | IC50 for PNP (PNP): in the nM concentration range

NC(=O)c1ccc[n+]([C@@H]2O[C@H](CO)[C@@H](O)[C@H]2O)c1 [NR, nicotinamide riboside]
effect on IL-1β-induced NO release (human OA chondrocytes [3]; [11]): little effect | effect on IL-1β-induced NO release (human OA chondrocytes [3]; NR 10 and 100 uM, serum-free, donor OA278): robust inhibition | effect on IL-1β-induced NO release (human OA chondrocytes [3]; NR 10 and 100 uM, serum-present (10% FCS), donor OA278): little effect | concentration at which significant inhibition of IL-1β-induced NO release was observed when used alone (human OA chondrocytes [3]): 200 µM | MSU crystal-induced infiltrating inflammatory cells [4]: significantly inhibited | stability in plasma (degradation to NAM) [6]: rapidly degraded | tolerability and safety ([7]; chronic oral supplementation, human): well-tolerated, safe | human NAD+ metabolism ([7]; chronic oral supplementation): boosted | blood pressure and exercise performance ([7]; dietary supplementation, elderly individuals): only mild benefits | glucose tolerance and β-cell secretory capacity ([7]; nondiabetic men with obesity): no significant impact | skeletal muscle mitochondria ([7]; obese and insulin-resistant men): no significant impact
